Values quoted from earlier work as cited in patent US20240423896A1, “METHOD FOR IMPROVING THE TACTILE SENSATION OF DYED KERATINOUS FIBRES, IN PARTICULAR HUMAN HAIR” (HENKEL AG & CO. KGAA, priority 2021, published 2024).

Details: 25° C.

Row | Structure (SMILES) | solubility in water | also measured
1 | CCN(Cc1cccc(S(=O)(=O)[O-])c1)c1ccc(C(=C2C=CC(=[N+](CC)Cc3cccc(S(=O)(=O)[O-])c3)C=C2)c2ccccc2S(=O)(=O)[O-])cc1.[Na+].[Na+] [Acid Blue 9, disodium salt of 2-({4-[N-ethyl(3-sulfonatobenzyl]amino]phenyl}{4-(N-ethyl(3-sulfonatobenzyl)imino]-2,5-cyclohexadien-1-ylidene}methyl)-benzenesulfonate] | – | water solubility: more than 20 wt. %
2 | O=S(=O)([O-])c1ccc(N=Nc2c(O)ccc3ccccc23)cc1.[Na+] [Acid Orange 7, sodium salt of 4-[(2-hydroxy-1-naphthyl)azo]benzene sulphonate] | more than 7 g/L | –
3 | Nc1cc(S(=O)(=O)[O-])cc2cc(S(=O)(=O)[O-])c(N=Nc3ccccc3)c(O)c12.[Na+].[Na+] [Acid Red 33, disodium salt of 5-amino-4-hydroxy-3-(phenylazo)-naphthalene-2,7-disulfonate] | 2.5 g/L | –
4 | O=C([O-])c1c(Cl)c(Cl)c(Cl)c(Cl)c1-c1c2cc(Br)c(=O)c(Br)c-2oc2c(Br)c([O-])c(Br)cc12.[Na+].[Na+] [Acid Red 92, disodium salt of 3,4,5,6-tetrachloro-2-(1,4,5,8-tetrabromo-6-hydroxy-3-oxanthene-9-yl) benzoic acid] | greater than 10 g/L | –
5 | O=C([O-])C1=NN(c2ccc(S(=O)(=O)[O-])cc2)C(=O)C1N=Nc1ccc(S(=O)(=O)[O-])cc1.[Na+].[Na+].[Na+] (centres unmarked) [Acid Yellow 23, trisodium salt of 4,5-dihydro-5-oxo-1-(4-sulfophenyl)-4-((4-sulfophenyl)azo)-1H-pyrazole-3-carboxylic acid] | – | solubility in water (in words): readily soluble in water
